Measurements as given in US10695321B2, “Use of glycopyrrolate for treating tachycardia” (Heptares Therapeutics Limited, priority 2011, dated 2020).

Test system: subjects with COPD
Assay: Phase IIa placebo-controlled crossover dose-ranging study, heart rate (vital signs) after single inhaled dose
Type: in vivo, human
Conditions: for Adjusted Mean for Average Change in Heart Rate from Test day Baseline: ANCOVA
Protocol: The study was a Phase IIa, multi-centre, randomised, double-blind, placebo-controlled, crossover, dose-ranging study using four dose levels of glycopyrronium bromide in subjects with COPD. A total of 40 subjects were required to complete the study.
Subjects were randomised to receive a single inhaled dose of 20, 125, 250 and 400 μg of glycopyrronium bromide in ascending order, with a placebo dose randomised into the sequence over 5 study visits. Subjects were randomised to receive treatment on Study Day 1 prior to dosing. All doses, including placebo, were administered using the Miat Monohaler.
The Treatment period then consisted of five study visits (separated by a 5-14-day wash-out period), during which subjects were dosed with a single inhaled dose of glycopyrronium bromide using a Miat Monohaler, in ascending order (20, 125, 250 or 400 μg). A placebo was randomly administered (using a Miat Monohaler) at one of the study visits; subsequent visits continued with the next highest dose of glycopyrronium bromide to that which was administered prior to the placebo.
All subjects were scheduled to be dosed between 08:00 and 10:00 am. For individual subjects, dosing was at the same time of day (±30 minutes). At each dosing visit, subjects received a single dose of glycopyrronium bromide or placebo administered via Miat Monohaler. Each different dose (20, 125, 250 or 400 μg) was contained in one capsule. An appropriate number of Miat Monohalers to conduct the study was also supplied to the site. A new Miat Monohaler was used to administer each dose at each visit.
copyrronium bromide was presented in size 3, white opaque, hard, gelatin capsules packaged in aluminium pouches. The capsules were presented in four dose strengths containing 20, 125, 250, or 400 μg glycopyrronium bromide. In addition to glycopyrronium bromide, excipient present in the capsule formulation consisted of the PowderHale^TM formulation of lactose and magnesium stearate.
All vital signs were measured on each study day, including heart rate (with the subject semi-supine for 5 minutes prior to measurement); blood pressure; respiratory rate and temperature were measured at each visit and before receiving study medication (pre-treatment), if applicable. Blood pressure and heart rate were also measured at 45, 90 minutes and 5, 10, 20 and 30 hours post-treatment on study days.
The statistical analyses were to be reported using summary tables and data listings. Statistical tests for the evaluation were to be performed at the 0.05 significance level using a two-sided test.
All analyses and tabulations were to be performed using SASS Version 6.12 on a PC platform. Continuous variables were to be summarised with sample size (n), mean, standard deviation (SD), minimum, median, and maximum. […] The mean was to have one extra decimal place and the standard deviation was to have two extra decimal places. Categorical variables were to be summarised with number and percentage of subjects.

[1] = 250 μg single inhaled dose, 90 mins post-dose
[2] = 250 μg single inhaled dose, 5 hrs post-dose
[3] = 250 μg single inhaled dose, 10 hrs post-dose
[4] = 250 μg single inhaled dose, 20 hrs post-dose
[5] = 250 μg single inhaled dose, 30 hrs post-dose
[6] = 250 μg single inhaled dose, pre-dose to 45 mins post-dose
[7] = 250 μg single inhaled dose, pre-dose to 90 mins post-dose
[8] = 250 μg single inhaled dose, pre-dose to 5 hours post-dose
[9] = 250 μg single inhaled dose, pre-dose to 10 hours post-dose
[10] = 250 μg single inhaled dose, pre-dose to 20 hours post-dose
[11] = 250 μg single inhaled dose, pre-dose to 30 hours post-dose
[12] = 400 μg single inhaled dose, 45 mins post-dose
[13] = 400 μg single inhaled dose, 90 mins post-dose
[14] = 400 μg single inhaled dose, 5 hrs post-dose
[15] = 400 μg single inhaled dose, 10 hrs post-dose
[16] = 400 μg single inhaled dose, 20 hrs post-dose
[17] = 400 μg single inhaled dose, 30 hrs post-dose
[18] = 400 μg single inhaled dose, pre-dose to 45 mins post-dose
[19] = 400 μg single inhaled dose, pre-dose to 90 mins post-dose
[20] = 400 μg single inhaled dose, pre-dose to 10 hours post-dose
[21] = 400 μg single inhaled dose, pre-dose to 30 hours post-dose

## C[N+]1(C)CCC(OC(=O)C(O)(c2ccccc2)C2CCCC2)C1 (stereo not drawn) [glycopyrronium bromide]
250 μg single inhaled dose, 45 mins post-dose
  Heart Rate Median: 64.0 bpm
[1]
  Heart Rate Mean: 68.2 bpm
  Heart Rate Median: 69.0 bpm
[2]
  Heart Rate Mean: 68.4 bpm
  Heart Rate Median: 68.5 bpm
[3]
  Heart Rate Mean: 66.3 bpm
  Heart Rate Median: 65.0 bpm
[4]
  Heart Rate Mean: 66.6 bpm
  Heart Rate Median: 65.0 bpm
[5]
  Heart Rate Mean: 70.7 bpm
  Heart Rate Median: 71.5 bpm
[6]
  Heart Rate Change from Test day Baseline, Mean: −4.6 bpm
  Heart Rate Change from Test day Baseline, Median: −4.5 bpm
[7]
  Heart Rate Change from Test day Baseline, Mean: −1.7 bpm
  Heart Rate Change from Test day Baseline, Median: −1.0 bpm
[8]
  Heart Rate Change from Test day Baseline, Mean: −1.4 bpm
  Heart Rate Change from Test day Baseline, Median: 0.0 bpm
[9]
  Heart Rate Change from Test day Baseline, Mean: −3.6 bpm
  Heart Rate Change from Test day Baseline, Median: −4.0 bpm
[10]
  Heart Rate Change from Test day Baseline, Mean: −3.4 bpm
  Heart Rate Change from Test day Baseline, Median: −4.0 bpm
[11]
  Heart Rate Change from Test day Baseline, Mean: 1.0 bpm
  Heart Rate Change from Test day Baseline, Median: 2.5 bpm
250 μg, to 45 mins post-dose
  Adjusted Mean for Average Change in Heart Rate from Test day Baseline: −3.693 bpm
250 μg, to 45 mins post-dose, p-value 0.324
  Dose v Placebo Difference, adjusted mean change in Heart Rate from Test day Baseline: −1.364 bpm
250 μg, to 90 mins post-dose
  Adjusted Mean for Average Change in Heart Rate from Test day Baseline: −0.763 bpm
250 μg, to 90 mins post-dose, p-value 0.203
  Dose v Placebo Difference, adjusted mean change in Heart Rate from Test day Baseline: −2.035 bpm
250 μg, to 5 hours post-dose
  Adjusted Mean for Average Change in Heart Rate from Test day Baseline: −0.586 bpm
250 μg, to 5 hours post-dose, p-value 0.072
  Dose v Placebo Difference, adjusted mean change in Heart Rate from Test day Baseline: −2.633 bpm
250 μg, to 10 hours post-dose
  Adjusted Mean for Average Change in Heart Rate from Test day Baseline: −4.657 bpm
250 μg, to 10 hours post-dose, p-value 0.078
  Dose v Placebo Difference, adjusted mean change in Heart Rate from Test day Baseline: −2.832 bpm
250 μg, to 20 hours post-dose
  Adjusted Mean for Average Change in Heart Rate from Test day Baseline: −1.858 bpm
250 μg, to 20 hours post-dose, p-value 0.773
  Dose v Placebo Difference, adjusted mean change in Heart Rate from Test day Baseline: −0.390 bpm
250 μg, to 30 hours post-dose
  Adjusted Mean for Average Change in Heart Rate from Test day Baseline: 1.436 bpm
250 μg, to 30 hours post-dose, p-value 0.581
  Dose v Placebo Difference, adjusted mean change in Heart Rate from Test day Baseline: 0.817 bpm
400 μg dose, 45 minute to 10 hour timepoints inclusive
  Statistical significance (p) of heart rate change relative to placebo: < 0.05
[12]
  Heart Rate Mean: 65.4 bpm
  Heart Rate Median: 65.0 bpm
[13]
  Heart Rate Mean: 67.1 bpm
  Heart Rate Median: 67.5 bpm
[14]
  Heart Rate Mean: 69.7 bpm
  Heart Rate Median: 69.0 bpm
[15]
  Heart Rate Mean: 65.7 bpm
  Heart Rate Median: 65.5 bpm
[16]
  Heart Rate Mean: 66.7 bpm
  Heart Rate Median: 66.0 bpm
[17]
  Heart Rate Mean: 70.9 bpm
  Heart Rate Median: 70.0 bpm
[18]
  Heart Rate Change from Test day Baseline, Mean: −7.4 bpm
  Heart Rate Change from Test day Baseline, Median: −6.5 bpm
[19]
  Heart Rate Change from Test day Baseline, Mean: −5.7 bpm
  Heart Rate Change from Test day Baseline, Median: −4.5 bpm
400 μg single inhaled dose, pre-dose to 5 hours post-dose
  Heart Rate Change from Test day Baseline, Mean: −3.1 bpm
[20]
  Heart Rate Change from Test day Baseline, Mean: −6.4 bpm
  Heart Rate Change from Test day Baseline, Median: −5.5 bpm
400 μg single inhaled dose, pre-dose to 20 hours post-dose
  Heart Rate Change from Test day Baseline, Mean: −5.6 bpm
[21]
  Heart Rate Change from Test day Baseline, Mean: −1.4 bpm
  Heart Rate Change from Test day Baseline, Median: 0.0 bpm
400 μg, to 45 mins post-dose
  Adjusted Mean for Average Change in Heart Rate from Test day Baseline: −7.052 bpm
400 μg, to 45 mins post-dose, p-value 0.005
  Dose v Placebo Difference, adjusted mean change in Heart Rate from Test day Baseline: −4.723 bpm
400 μg, to 90 mins post-dose
  Adjusted Mean for Average Change in Heart Rate from Test day Baseline: −4.315 bpm
400 μg, to 90 mins post-dose, p-value 0.004
  Dose v Placebo Difference, adjusted mean change in Heart Rate from Test day Baseline: −5.587 bpm
400 μg, to 5 hours post-dose
  Adjusted Mean for Average Change in Heart Rate from Test day Baseline: −3.455 bpm
400 μg, to 5 hours post-dose, p-value 0.002
  Dose v Placebo Difference, adjusted mean change in Heart Rate from Test day Baseline: −5.502 bpm
400 μg, to 10 hours post-dose
  Adjusted Mean for Average Change in Heart Rate from Test day Baseline: −6.919 bpm
400 μg, to 10 hours post-dose, p-value 0.008
  Dose v Placebo Difference, adjusted mean change in Heart Rate from Test day Baseline: −5.095 bpm
400 μg, to 20 hours post-dose
  Adjusted Mean for Average Change in Heart Rate from Test day Baseline: −2.371 bpm
400 μg, to 20 hours post-dose, p-value 0.583
  Dose v Placebo Difference, adjusted mean change in Heart Rate from Test day Baseline: −0.903 bpm
400 μg, to 30 hours post-dose
  Adjusted Mean for Average Change in Heart Rate from Test day Baseline: 0.475 bpm
400 μg, to 30 hours post-dose, p-value 0.935
  Dose v Placebo Difference, adjusted mean change in Heart Rate from Test day Baseline: −0.143 bpm
20-400 μg inhaled, up to 5 hours post-dose
  Mean heart rate from Test Day Baseline, dose relation: dose dependent decrease
Any of the inhaled doses, up to 30 hours
  Subsequent tachycardic effect: not evident
